Reference: patent US4386077A (Made Italiana s.r.l, priority 1981, dated 1983)

Legend:
[1] = Serum kinetics and absolute bioavailability of ^14 C-labelled CDP-choline and "ASONIC" after i.v. and oral administration in Cynomolgus monkeys; type: in vivo, Cynomolgus monkey; details: for Absolute bioavailability F: oral
Experimental: From the end of the curves serum concentration/time, it was possible to calculate the constant of the apparent elimination speed from the organism as well as the relative half-life. These values were utilized in calculating the AUC T30 hours →T.infin. for the total of the curves concentration/time in the same animal. The AUC To →T30 hrs was calculated by means of the trapezium methods. […] For each dosage, a randomized cross-over procedure was used. Seriated blood samples were collected until 30 hours after each administration. From the single curves concentration/time it was possible to calculate the AUC To →T30 hrs. After each administration, including the intravenous one, urine was collected at the following time intervals: 0-24 hours, 24-48 hours and 48-72 hours.

[2] = Cumulative urinary elimination in Cynomolgus monkeys; type: in vivo, Cynomolgus monkey
Experimental: Blood was collected at the following time: 0 (basal values) and 5, 10, 15, 30, 60 minutes, 2, 4, 7, 24 and 30 hours after the administration. From the end of the curves serum concentration/time, it was possible to calculate the constant of the apparent elimination speed from the organism as well as the relative half-life. These values were utilized in calculating the AUC T30 hours →T.infin. for the total of the curves concentration/time in the same animal. The AUC To →T30 hrs was calculated by means of the trapezium methods. […] For each dosage, a randomized cross-over procedure was used. Seriated blood samples were collected until 30 hours after each administration. From the single curves concentration/time it was possible to calculate the AUC To →T30 hrs. After each administration, including the intravenous one, urine was collected at the following time intervals: 0-24 hours, 24-48 hours and 48-72 hours.

[3] = oral, compound as such; cited from earlier work

SMILES: C[N+](C)(C)CCOP(=O)(O)OP(=O)([O-])OC[C@H]1O[C@@H](n2ccc(N)nc2=O)[C@H](O)[C@@H]1O [CDP-choline, cytidine diphosphocholine]
- Serum concentration ([1]; monkey no. 2, 25 mg/kg i.v., 60'): 2625 DPM/ml
- Serum concentration ([1]; monkey no. 2, 25 mg/kg i.v., 2 hr): 2630 DPM/ml
- Serum concentration ([1]; monkey no. 2, 25 mg/kg i.v., 4 hr): 3369 DPM/ml
- Serum concentration ([1]; monkey no. 2, 25 mg/kg i.v., 7 hr): 4013 DPM/ml
- Serum concentration ([1]; monkey no. 2, 25 mg/kg i.v., 24 hr): 2258 DPM/ml
- Serum concentration ([1]; monkey no. 2, 25 mg/kg i.v., 30 hr): 2145 DPM/ml
- Serum concentration ([1]; monkey no. 2, 200 mg/kg per os, 15'): 61 DPM/ml
- Serum concentration ([1]; monkey no. 2, 200 mg/kg per os, 45'): 59 DPM/ml
- Serum concentration ([1]; monkey no. 2, 200 mg/kg per os, 60'): 94 DPM/ml
- Serum concentration ([1]; monkey no. 2, 200 mg/kg per os, 7 hr): 696 DPM/ml
- Serum concentration ([1]; monkey no. 2, 200 mg/kg per os, 9 hr): 595 DPM/ml
- Serum concentration ([1]; monkey no. 2, 200 mg/kg per os, 24 hr): 417 DPM/ml
- Serum concentration ([1]; monkey no. 2, 200 mg/kg per os, 30 hr): 303 DPM/ml
- Serum concentration ([1]; monkey no. 2, 400 mg/kg per os, 60'): 69 DPM/ml
- Serum concentration ([1]; monkey no. 2, 400 mg/kg per os, 90'): 52 DPM/ml
- Serum concentration ([1]; monkey no. 2, 400 mg/kg per os, 2 hr): 81 DPM/ml
- Serum concentration ([1]; monkey no. 2, 400 mg/kg per os, 3 hr): 174 DPM/ml
- Serum concentration ([1]; monkey no. 2, 400 mg/kg per os, 4 hr): 495 DPM/ml
- Serum concentration ([1]; monkey no. 2, 400 mg/kg per os, 6 hr): 1.401 DPM/ml
- Serum concentration ([1]; monkey no. 2, 400 mg/kg per os, 7 hr): 2.560 DPM/ml
- Serum concentration ([1]; monkey no. 2, 400 mg/kg per os, 8 hr): 4.235 DPM/ml
- Serum concentration ([1]; monkey no. 2, 400 mg/kg per os, 9 hr): 4.450 DPM/ml
- Serum concentration ([1]; monkey no. 2, 400 mg/kg per os, 24 hr): 449 DPM/ml
- Serum concentration ([1]; monkey no. 2, 400 mg/kg per os, 30 hr): 401 DPM/ml
- Absolute bioavailability ([1]; monkeys, oral control dosages): much lower
- Absolute bioavailability F ([1]; monkeys, 200 mg/kg as CDP-choline): 0.2143
- Absolute bioavailability F ([1]; monkeys, 400 mg/kg as CDP-choline): 0.6174
- Cumulative urinary elimination ([2]; average and S.D. of 2 monkeys, 25 mg/kg i.v., 0-24 hr): 50.65 ± 2.33 % OF THE ADMINISTERED DOSE
- Cumulative urinary elimination ([2]; average and S.D. of 2 monkeys, 25 mg/kg i.v., 0-72 hr): 53.5 ± 3.25 % OF THE ADMINISTERED DOSE
- Cumulative urinary elimination ([2]; average and S.D. of 2 monkeys, 25 mg/kg i.v., 24-48 hr): 2.5 ± 0.99 % OF THE ADMINISTERED DOSE
- Cumulative urinary elimination ([2]; average and S.D. of 2 monkeys, 25 mg/kg i.v., 48-72 hr): 0.35 ± 0.07 % OF THE ADMINISTERED DOSE
- Cumulative urinary elimination ([2]; average and S.D. of 2 monkeys, 200 mg/kg per os, 0-24 hr): 42.75 ± 6.15 % OF THE ADMINISTERED DOSE
- Cumulative urinary elimination ([2]; average and S.D. of 2 monkeys, 200 mg/kg per os, 0-72 hr): 47.5 ± 3.11 % OF THE ADMINISTERED DOSE
- Cumulative urinary elimination ([2]; average and S.D. of 2 monkeys, 200 mg/kg per os, 24-48 hr): 4.2 ± 2.83 % OF THE ADMINISTERED DOSE
- Cumulative urinary elimination ([2]; average and S.D. of 2 monkeys, 200 mg/kg per os, 48-72 hr): 0.55 ± 0.21 % OF THE ADMINISTERED DOSE
- Cumulative urinary elimination ([2]; average and S.D. of 2 monkeys, 400 mg/kg per os, 0-24 hr): 31.3 ± 9.3 % OF THE ADMINISTERED DOSE
- Cumulative urinary elimination ([2]; average and S.D. of 2 monkeys, 400 mg/kg per os, 0-72 hr): 37.65 ± 8.98 % OF THE ADMINISTERED DOSE
- Cumulative urinary elimination ([2]; average and S.D. of 2 monkeys, 400 mg/kg per os, 24-48 hr): 5.6 ± 0.56 % OF THE ADMINISTERED DOSE
- Cumulative urinary elimination ([2]; average and S.D. of 2 monkeys, 400 mg/kg per os, 48-72 hr): 0.75 ± 0.21 % OF THE ADMINISTERED DOSE
- Cumulative urinary elimination ([2]; monkey no. 1, 25 mg/kg i.v., 0-24 hr): 49 % OF THE ADMINISTERED DOSE
- Cumulative urinary elimination ([2]; monkey no. 1, 25 mg/kg i.v., 0-72 hr): 51.2 % OF THE ADMINISTERED DOSE
- Cumulative urinary elimination ([2]; monkey no. 1, 25 mg/kg i.v., 24-48 hr): 1.8 % OF THE ADMINISTERED DOSE
- Cumulative urinary elimination ([2]; monkey no. 1, 25 mg/kg i.v., 48-72 hr): 0.4 % OF THE ADMINISTERED DOSE
- Cumulative urinary elimination ([2]; monkey no. 1, 200 mg/kg per os, 0-24 hr): 38.4 % OF THE ADMINISTERED DOSE
- Cumulative urinary elimination ([2]; monkey no. 1, 200 mg/kg per os, 0-72 hr): 45.3 % OF THE ADMINISTERED DOSE
- Cumulative urinary elimination ([2]; monkey no. 1, 200 mg/kg per os, 24-48 hr): 6.2 % OF THE ADMINISTERED DOSE
- Cumulative urinary elimination ([2]; monkey no. 1, 200 mg/kg per os, 48-72 hr): 0.7 % OF THE ADMINISTERED DOSE
- Cumulative urinary elimination ([2]; monkey no. 1, 400 mg/kg per os, 0-24 hr): 24.7 % OF THE ADMINISTERED DOSE
- Cumulative urinary elimination ([2]; monkey no. 1, 400 mg/kg per os, 0-72 hr): 31.3 % OF THE ADMINISTERED DOSE
- Cumulative urinary elimination ([2]; monkey no. 1, 400 mg/kg per os, 24-48 hr): 6.0 % OF THE ADMINISTERED DOSE
- Cumulative urinary elimination ([2]; monkey no. 1, 400 mg/kg per os, 48-72 hr): 0.6 % OF THE ADMINISTERED DOSE
- Cumulative urinary elimination ([2]; monkey no. 2, 25 mg/kg i.v., 0-24 hr): 52.3 % OF THE ADMINISTERED DOSE
- Cumulative urinary elimination ([2]; monkey no. 2, 25 mg/kg i.v., 0-72 hr): 55.8 % OF THE ADMINISTERED DOSE
- Cumulative urinary elimination ([2]; monkey no. 2, 25 mg/kg i.v., 24-48 hr): 3.2 % OF THE ADMINISTERED DOSE
- Cumulative urinary elimination ([2]; monkey no. 2, 25 mg/kg i.v., 48-72 hr): 0.3 % OF THE ADMINISTERED DOSE
- Cumulative urinary elimination ([2]; monkey no. 2, 200 mg/kg per os, 0-24 hr): 47.1 % OF THE ADMINISTERED DOSE
- Cumulative urinary elimination ([2]; monkey no. 2, 200 mg/kg per os, 0-72 hr): 49.7 % OF THE ADMINISTERED DOSE
- Cumulative urinary elimination ([2]; monkey no. 2, 200 mg/kg per os, 24-48 hr): 2.2 % OF THE ADMINISTERED DOSE
- Cumulative urinary elimination ([2]; monkey no. 2, 200 mg/kg per os, 48-72 hr): 0.4 % OF THE ADMINISTERED DOSE
- Cumulative urinary elimination ([2]; monkey no. 2, 400 mg/kg per os, 0-24 hr): 37.9 % OF THE ADMINISTERED DOSE
- Cumulative urinary elimination ([2]; monkey no. 2, 400 mg/kg per os, 0-72 hr): 44.0 % OF THE ADMINISTERED DOSE
- Cumulative urinary elimination ([2]; monkey no. 2, 400 mg/kg per os, 24-48 hr): 5.2 % OF THE ADMINISTERED DOSE
- Cumulative urinary elimination ([2]; monkey no. 2, 400 mg/kg per os, 48-72 hr): 0.9 % OF THE ADMINISTERED DOSE
- Absorbability [3]: poor absorbability
